Test results as given in ChEMBL document CHEMBL1145007 (J Med Chem, 2003).

Tests used:
Acetylcholinesterase [1] = target: T1, Acetylcholinesterase (Bos taurus, UniProt P23795)
T1 sequence (P23795 whole entry): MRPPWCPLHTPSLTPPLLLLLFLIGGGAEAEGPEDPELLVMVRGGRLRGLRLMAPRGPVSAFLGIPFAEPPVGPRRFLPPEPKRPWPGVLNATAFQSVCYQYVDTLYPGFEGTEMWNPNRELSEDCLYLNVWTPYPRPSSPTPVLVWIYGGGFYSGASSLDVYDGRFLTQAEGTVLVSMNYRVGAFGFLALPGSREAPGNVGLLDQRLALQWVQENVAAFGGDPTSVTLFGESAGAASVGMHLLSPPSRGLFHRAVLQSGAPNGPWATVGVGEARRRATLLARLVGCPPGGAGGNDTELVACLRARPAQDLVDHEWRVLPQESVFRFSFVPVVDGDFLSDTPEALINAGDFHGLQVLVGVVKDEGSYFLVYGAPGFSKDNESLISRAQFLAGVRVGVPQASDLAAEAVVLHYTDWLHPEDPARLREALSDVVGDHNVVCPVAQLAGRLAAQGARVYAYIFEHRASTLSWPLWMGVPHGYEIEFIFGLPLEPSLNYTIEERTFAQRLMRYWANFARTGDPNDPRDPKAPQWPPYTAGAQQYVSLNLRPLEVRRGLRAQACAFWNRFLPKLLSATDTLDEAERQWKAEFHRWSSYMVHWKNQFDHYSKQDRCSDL
Description: Inhibition of fetal Bovine serum AChE

Butyrylcholinesterase = Butyrylcholinesterase (Equus caballus, UniProt Q9N1N9)
Description: Inhibition of Equine Butyrylcholinesterase

Acetylcholinesterase [2] = target: Acetylcholinesterase (Homo sapiens, UniProt P22303); assay: Inhibitory activity against human AChE
Acetylcholinesterase (Homo sapiens, UniProt P22303), sequence (P22303 whole entry): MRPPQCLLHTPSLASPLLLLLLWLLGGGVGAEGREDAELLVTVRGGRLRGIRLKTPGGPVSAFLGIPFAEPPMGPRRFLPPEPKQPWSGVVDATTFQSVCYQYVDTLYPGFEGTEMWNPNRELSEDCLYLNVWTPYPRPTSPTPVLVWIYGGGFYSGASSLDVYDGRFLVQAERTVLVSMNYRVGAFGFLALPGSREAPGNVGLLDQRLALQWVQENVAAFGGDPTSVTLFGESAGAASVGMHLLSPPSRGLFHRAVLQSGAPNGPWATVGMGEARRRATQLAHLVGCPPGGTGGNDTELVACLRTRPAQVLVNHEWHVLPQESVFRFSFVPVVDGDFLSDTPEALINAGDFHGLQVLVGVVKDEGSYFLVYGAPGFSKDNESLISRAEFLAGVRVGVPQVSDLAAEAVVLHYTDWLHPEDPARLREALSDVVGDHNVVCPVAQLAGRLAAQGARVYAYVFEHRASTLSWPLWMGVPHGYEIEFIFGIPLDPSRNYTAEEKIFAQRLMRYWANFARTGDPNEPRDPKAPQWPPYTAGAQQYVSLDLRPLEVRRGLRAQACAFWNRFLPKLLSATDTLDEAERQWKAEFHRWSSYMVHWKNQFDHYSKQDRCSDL

Butyrylcholinesterase, sequence (Q9N1N9 whole entry): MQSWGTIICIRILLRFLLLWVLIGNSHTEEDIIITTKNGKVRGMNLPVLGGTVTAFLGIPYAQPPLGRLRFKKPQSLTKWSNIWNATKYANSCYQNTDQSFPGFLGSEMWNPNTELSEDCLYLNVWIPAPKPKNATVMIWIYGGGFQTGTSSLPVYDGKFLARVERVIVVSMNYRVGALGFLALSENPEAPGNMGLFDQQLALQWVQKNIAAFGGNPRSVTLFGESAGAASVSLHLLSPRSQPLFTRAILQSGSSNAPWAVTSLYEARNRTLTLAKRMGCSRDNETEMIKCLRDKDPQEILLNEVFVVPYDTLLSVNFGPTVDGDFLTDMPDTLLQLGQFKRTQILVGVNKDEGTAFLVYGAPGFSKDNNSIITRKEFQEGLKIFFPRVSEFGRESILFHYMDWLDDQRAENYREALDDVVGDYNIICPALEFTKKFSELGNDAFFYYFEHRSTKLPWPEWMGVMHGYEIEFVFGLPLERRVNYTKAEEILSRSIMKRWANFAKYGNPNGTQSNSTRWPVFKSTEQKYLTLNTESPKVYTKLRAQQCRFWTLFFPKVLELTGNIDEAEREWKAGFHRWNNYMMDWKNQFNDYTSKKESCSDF

Row | SMILES | Ki (Acetylcholinesterase [1]) [nM] | Ki (Butyrylcholinesterase) [nM] | Ki (Acetylcholinesterase [2]) [nM]
1 | CC(=O)N(CCCNc1c2c(nc3ccccc13)CCCC2)CCCNc1c2c(nc3ccccc13)CCCC2 | 1500 | 2 | 
2 | c1ccc2c(NCCCCCCCCSc3c4c(nc5ccccc35)CCCC4)c3c(nc2c1)CCCC3 | 250 | 0.4 | 
3 | CCC1=CC2Cc3nc4cc(Cl)ccc4c(N)c3[C@@H](C1)C2 [HUPRINE X] |  |  | 0.026
4 | CN(CCCNc1c2c(nc3ccccc13)CCCC2)CCCNc1c2c(nc3cc(Cl)cc(Cl)c13)CCCC2 | 3.7 | 11 | 
5 | c1ccc2c(NCCCCCSc3c4c(nc5ccccc35)CCCC4)c3c(nc2c1)CCCC3 | 210 | 10 | 
6 | CN(CCCNc1c2c(nc3ccccc13)CCCC2)CCCNc1c2c(nc3ccccc13)CCCC2 | 0.06 | 6 | 
